Values of other authors in US8062633B2, “Surface sanitizer for the food industry based on three new lactic acid bacteria that have antagonistic action against Listeria monocytogenes, the microorganism that causes listeriosis in humans” (Universidad Austral de Chile, priority 2009, dated 2011).

What was measured:
L. monocytogenes = conditions: 48 h of incubation
[1] = test system: Listeria monocytogenes Scott A; conditions: tofu stored at 10° C.

nisin
regrowth of L. monocytogenes in culture broth (L. monocytogenes): developed resistance and grew again after 48 h | development of L. monocytogenes in tofu [1]: Listeria started to grow again from the second day onward
